According to PubChem BioAssay AID504816 (The Scripps Research Institute Molecular Screening Center, 2011):
Active and inactive are the calls of the source.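 How the source made its calls: active means compounds that boost mutant procaspase-3 substrate cleavage with EC50 of 10000 nM or lower; inactive means EC50 above 10000 nM.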

molecular target: Caspase-3 (Homo sapiens) (UniProt P42574); test: activators of human procaspase-3 D3A mutant, late-stage follow-up, biochemical, absorbance, PC-3 D3A mutant, powder samples (AID 504816); conditions: recombinant PC-3 D3A, Ac-DEVD-pNA absorbance 405 nm
Sequence (P42574 whole entry D9A/D28A/D175A): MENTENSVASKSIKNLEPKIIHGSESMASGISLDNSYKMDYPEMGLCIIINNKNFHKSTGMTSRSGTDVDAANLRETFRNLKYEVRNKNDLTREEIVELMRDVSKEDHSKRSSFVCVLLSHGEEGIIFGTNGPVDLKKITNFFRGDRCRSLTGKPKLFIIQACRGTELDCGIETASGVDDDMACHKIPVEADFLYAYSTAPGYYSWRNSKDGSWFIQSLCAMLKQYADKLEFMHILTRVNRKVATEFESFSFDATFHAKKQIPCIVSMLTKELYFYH

| EC50 | SMILES |
| --- | --- |
| inactive | CC(=O)Oc1cccc2c1C(=O)c1c(OC(C)=O)cc(C(=O)O)cc1C2=O |
| > 85.3 µM (inactive) | COc1ccccc1Nc1nc2c(C)cccc2cc1C#N |
| inactive | CC(NC(=O)c1cc2cc([N+](=O)[O-])ccc2oc1=O)C1CCCO1 (centres undefined) |
| 3.19 µM | C=CCn1c(=NC(=O)c2cc(-c3cccs3)nc3ccccc23)sc2cc(S(N)(=O)=O)ccc21 |
